In ChEMBL document CHEMBL1201861, “Genomics of Drug Sensitity in Cancer screening data, Wellcome Trust Sanger Institute”:

Tests used:
Test in all cases: cells
[1] = tested on: SK-NEP-1; format: functional, cell-based, Homo sapiens; settings: Homo sapiens, SK-NEP-1;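 also: growth inhibition of human SK-NEP-1 cells, read out by a cell viability assay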
Description: SANGER: Inhibition of human SK-NEP-1 cell growth in a cell viability assay.

[2] = tested on: NCI-H69; format: functional, cell-based, Homo sapiens; settings: Homo sapiens, NCI-H69;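 also: growth inhibition of the cell line, read out with a cell viability assay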
Description: SANGER: Inhibition of human NCI-H69 cell growth in a cell viability assay.

[3] = tested on: BT-474; format: functional, cell-based, Homo sapiens; settings: Homo sapiens, BT-474
Description: SANGER: Inhibition of human BT-474 cell growth in a cell viability assay.

[4] = tested on: PSN1; format: functional, cell-based, Homo sapiens; settings: Homo sapiens, PSN1;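 also: suppression of growth of human PSN1 cells, read out by a cell viability assay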
Description: SANGER: Inhibition of human PSN1 cell growth in a cell viability assay.

[5] = tested on: COLO-684; format: functional, cell-based, Homo sapiens; settings: Homo sapiens, COLO-684
Description: SANGER: Inhibition of human COLO-684 cell growth in a cell viability assay.

[6] = tested on: SCC-15; format: functional, cell-based, Homo sapiens; settings: Homo sapiens, SCC-15;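 also: growth inhibition of SCC-15 cells, read out with a cell viability assay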
Description: SANGER: Inhibition of human SCC-15 cell growth in a cell viability assay.

[7] = tested on: MN-60; format: functional, cell-based, Homo sapiens; settings: Homo sapiens, MN-60;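 also: growth inhibition of the MN-60 cell line, determined with a cell viability assay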
Description: SANGER: Inhibition of human MN-60 cell growth in a cell viability assay.

[8] = tested on: U-87 MG; format: functional, cell-based, Homo sapiens, U-87MG ATCC; settings: Homo sapiens, U-87 MG;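 also: growth inhibition of the cells measured with a viability assay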
Description: SANGER: Inhibition of human U-87-MG cell growth in a cell viability assay.

[9] = tested on: NCI-H1155; format: functional, cell-based, Homo sapiens; settings: Homo sapiens, NCI-H1155;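 also: cell growth inhibition measured by a viability assay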
Description: SANGER: Inhibition of human NCI-H1155 cell growth in a cell viability assay.

[10] = tested on: NCI-H2126; format: functional, cell-based, Homo sapiens; settings: Homo sapiens, NCI-H2126;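 also: growth inhibition of the cancer cell line, determined with a cell viability readout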
Description: SANGER: Inhibition of human NCI-H2126 cell growth in a cell viability assay.

[11] = tested on: SBC-1; format: functional, cell-based, Homo sapiens; settings: Homo sapiens, SBC-1;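 also: cell viability assay measuring growth inhibition of the SBC-1 cell line, IC50 being the concentration that halves growth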
Description: SANGER: Inhibition of human SBC-1 cell growth in a cell viability assay.

[12] = tested on: HEL; format: functional, cell-based, Homo sapiens; settings: Homo sapiens, HEL;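 also: growth inhibition of HEL cells, read out with a cell viability assay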
Description: SANGER: Inhibition of human HEL cell growth in a cell viability assay.

[13] = tested on: HCC1187; format: functional, cell-based, Homo sapiens; settings: Homo sapiens, HCC1187;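 also: growth inhibition of HCC1187 cells, read out with a cell viability assay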
Description: SANGER: Inhibition of human HCC1187 cell growth in a cell viability assay.

[14] = tested on: LAN-6; format: functional, cell-based, Homo sapiens; settings: Homo sapiens, LAN-6;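 also: growth inhibition of LAN-6 cells, determined with a cell viability assay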
Description: SANGER: Inhibition of human LAN-6 cell growth in a cell viability assay.

[15] = tested on: NB5; format: functional, cell-based, Homo sapiens; settings: Homo sapiens, NB5;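 also: growth inhibition of NB5 cells, read out as cell viability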
Description: SANGER: Inhibition of human NB5 cell growth in a cell viability assay.

[16] = tested on: SW684; format: functional, cell-based, Homo sapiens; settings: Homo sapiens, SW684;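 also: growth inhibition of human SW684 cells, measured by a cell viability assay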
Description: SANGER: Inhibition of human SW684 cell growth in a cell viability assay.

[17] = tested on: KARPAS-299; format: functional, cell-based, Homo sapiens; settings: Homo sapiens, KARPAS-299
Description: SANGER: Inhibition of human KARPAS-299 cell growth in a cell viability assay.

[18] = tested on: P30-OHK; format: functional, cell-based, Homo sapiens; settings: Homo sapiens, P30-OHK;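 also: growth inhibition of the P30-OHK cell line, read out with a cell viability assay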
Description: SANGER: Inhibition of human P30-OHK cell growth in a cell viability assay.

[19] = tested on: KS-1; format: functional, cell-based, Homo sapiens; settings: Homo sapiens, KS-1;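 also: growth inhibition of KS-1 cells, read out with a cell viability assay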
Description: SANGER: Inhibition of human KS-1 cell growth in a cell viability assay.

[20] = tested on: Ramos-2G6-4C10; format: functional, cell-based, Homo sapiens; settings: Homo sapiens, Ramos-2G6-4C10;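 also: growth inhibition of the cell line, measured by a cell viability read-out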
Description: SANGER: Inhibition of human Ramos-2G6-4C10 cell growth in a cell viability assay.

[21] = tested on: ATN-1; format: functional, cell-based, Homo sapiens; settings: Homo sapiens, ATN-1;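 also: growth inhibition of human ATN-1 cells, read out with a cell viability assay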
Description: SANGER: Inhibition of human ATN-1 cell growth in a cell viability assay.

[22] = tested on: SW 954; format: functional, cell-based, Homo sapiens; settings: Homo sapiens, SW 954;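 also: growth inhibition of SW954 human cancer cells, read out as cell viability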
Description: SANGER: Inhibition of human SW954 cell growth in a cell viability assay.

[23] = tested on: TE-9; format: functional, cell-based, Homo sapiens; settings: Homo sapiens, TE-9;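 also: cell growth inhibition, measured with a cell viability readout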
Description: SANGER: Inhibition of human TE-9 cell growth in a cell viability assay.

[24] = tested on: 697; format: functional, cell-based, Homo sapiens; settings: Homo sapiens
Description: SANGER: Inhibition of human 697 cell growth in a cell viability assay.

[25] = tested on: GT3TKB; format: functional, cell-based, Homo sapiens; settings: Homo sapiens, GT3TKB;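 also: growth inhibition of the cell line, read out with a cell viability assay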
Description: SANGER: Inhibition of human GT3TKB cell growth in a cell viability assay.

[26] = tested on: TE-8; format: functional, cell-based, Homo sapiens; settings: Homo sapiens, TE-8;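 also: growth inhibition of TE-8 cells, measured with a cell viability readout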
Description: SANGER: Inhibition of human TE-8 cell growth in a cell viability assay.

[27] = tested on: AM-38; format: functional, cell-based, Homo sapiens; settings: Homo sapiens, AM-38;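 also: growth inhibition of AM-38 cells of human origin, read out by a cell viability assay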
Description: SANGER: Inhibition of human AM-38 cell growth in a cell viability assay.

[28] = tested on: CTV-1; format: functional, cell-based, Homo sapiens; settings: Homo sapiens, CTV-1;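 also: growth inhibition of the cell line, read out with a cell viability assay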
Description: SANGER: Inhibition of human CTV-1 cell growth in a cell viability assay.

[29] = tested on: SK-N-FI; format: functional, cell-based, Homo sapiens; settings: Homo sapiens, SK-N-FI;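 also: cell viability assay measuring growth inhibition of human SK-N-FI cells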
Description: SANGER: Inhibition of human SK-N-FI cell growth in a cell viability assay.

[30] = tested on: NCI-H1304; format: functional, cell-based, Homo sapiens; settings: Homo sapiens, NCI-H1304;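 also: growth inhibition of the cancer cell line, measured in a cell viability assay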
Description: SANGER: Inhibition of human NCI-H1304 cell growth in a cell viability assay.

[31] = tested on: D283 Med; format: functional, cell-based, Homo sapiens; settings: Homo sapiens, D283 Med
Description: SANGER: Inhibition of human D-283MED cell growth in a cell viability assay.

[32] = tested on: NH-12; format: functional, cell-based, Homo sapiens; settings: Homo sapiens, NH-12;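 also: growth inhibition of NH-12 cells, read out with a cell viability assay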
Description: SANGER: Inhibition of human NH-12 cell growth in a cell viability assay.

[33] = tested on: EW-16; format: functional, cell-based, Homo sapiens; settings: Homo sapiens, EW-16;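 also: growth inhibition of human EW-16 cells, read out as cell viability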
Description: SANGER: Inhibition of human EW-16 cell growth in a cell viability assay.

[34] = tested on: MHH-PREB-1; format: functional, cell-based, Homo sapiens; settings: Homo sapiens, MHH-PREB-1;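 also: cell viability assay measuring inhibition of proliferation of human MHH-PREB-1 cells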
Description: SANGER: Inhibition of human MHH-PREB-1 cell growth in a cell viability assay.

[35] = tested on: SW982; format: functional, cell-based, Homo sapiens; settings: Homo sapiens, SW982;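 also: growth inhibition of SW982 cells, read out with a cell viability assay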
Description: SANGER: Inhibition of human SW982 cell growth in a cell viability assay.

[36] = tested on: ES4; format: functional, cell-based, Homo sapiens; settings: Homo sapiens, ES4;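 also: growth inhibition of human ES4 cells, read out by a cell viability assay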
Description: SANGER: Inhibition of human ES4 cell growth in a cell viability assay.

[37] = tested on: LB2518-MEL; format: functional, cell-based, Homo sapiens; settings: Homo sapiens, LB2518-MEL;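 also: growth inhibition of human LB2518-MEL cells, measured with a cell viability assay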
Description: SANGER: Inhibition of human LB2518-MEL cell growth in a cell viability assay.

[38] = tested on: SNU-C2B; format: functional, cell-based, Homo sapiens; settings: Homo sapiens, SNU-C2B;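 also: cell viability readout used to measure compound-driven suppression of SNU-C2B cell proliferation, IC50 marking half-maximal growth inhibition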
Description: SANGER: Inhibition of human SNU-C2B cell growth in a cell viability assay.

[39] = tested on: CW-2; format: functional, cell-based, Homo sapiens; settings: Homo sapiens, CW-2;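 also: growth inhibition of CW-2 cells, read out by a cell viability assay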
Description: SANGER: Inhibition of human CW-2 cell growth in a cell viability assay.

[40] = tested on: EC-GI-10; format: functional, cell-based, Homo sapiens; settings: Homo sapiens, EC-GI-10
Description: SANGER: Inhibition of human EC-GI-10 cell growth in a cell viability assay.

[41] = tested on: NCI-H209; format: functional, cell-based, Homo sapiens; settings: Homo sapiens, NCI-H209;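 also: growth inhibition of human NCI-H209 cells, measured by a cell viability assay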
Description: SANGER: Inhibition of human NCI-H209 cell growth in a cell viability assay.

[42] = tested on: NB13; format: functional, cell-based, Homo sapiens; settings: Homo sapiens, NB13;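 also: cell viability readout measuring growth inhibition of human NB13 cells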
Description: SANGER: Inhibition of human NB13 cell growth in a cell viability assay.

[43] = tested on: DJM-1; format: functional, cell-based, Homo sapiens; settings: Homo sapiens, DJM-1;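 also: growth inhibition of human DJM-1 cells, read out by a cell viability assay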
Description: SANGER: Inhibition of human DJM-1 cell growth in a cell viability assay.

[44] = tested on: MSTO-211H; format: functional, cell-based, Homo sapiens; settings: Homo sapiens, MSTO-211H
Description: SANGER: Inhibition of human MSTO-211H cell growth in a cell viability assay.

[45] = tested on: GCIY; format: functional, cell-based, Homo sapiens; settings: Homo sapiens, GCIY;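 also: growth inhibition of the human GCIY cell line, read out by a cell viability assay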
Description: SANGER: Inhibition of human GCIY cell growth in a cell viability assay.

[46] = tested on: SNU1; format: functional, cell-based, Homo sapiens; settings: Homo sapiens, SNU1;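 also: growth inhibition of human NCI-SNU-1 cells, measured with a cell viability assay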
Description: SANGER: Inhibition of human NCI-SNU-1 cell growth in a cell viability assay.

[47] = tested on: IA-LM; format: functional, cell-based, Homo sapiens; settings: Homo sapiens, IA-LM;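 also: cell viability assay measuring growth inhibition of human IA-LM cells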
Description: SANGER: Inhibition of human IA-LM cell growth in a cell viability assay.

[48] = tested on: SNU-5; format: functional, cell-based, Homo sapiens; settings: Homo sapiens, SNU-5;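 also: cell viability readout used to measure growth inhibition in human NCI-SNU-5 cells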
Description: SANGER: Inhibition of human NCI-SNU-5 cell growth in a cell viability assay.

[49] = tested on: A253 cell line; format: functional, cell-based, Homo sapiens; settings: Homo sapiens, A253;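 also: growth inhibition of A253 cells, read out with a cell viability assay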
Description: SANGER: Inhibition of human A253 cell growth in a cell viability assay.

SMILES: COc1cccc2c1C(=O)c1c(O)c3c(c(O)c1C2=O)C[C@@](O)(C(=O)CO)C[C@@H]3O[C@H]1C[C@H](N)[C@H](O)[C@H](C)O1 [DOXORUBICIN]
- IC50 [1]: 116 nM
- IC50 [2]: 569 nM
- IC50 [3]: 779 nM
- IC50 [4]: 11.2 nM
- IC50 [5]: 220 nM
- IC50 [6]: 188 nM
- IC50 [7]: 605 nM
- IC50 [8]: 346 nM
- IC50 [9]: 580 nM
- IC50 [10]: 192 nM
- IC50 [11]: 156 nM
- IC50 [12]: 175 nM
- IC50 [13]: 591 nM
- IC50 [14]: 315 nM
- IC50 [15]: 360 nM
- IC50 [16]: > 1020 nM
- IC50 [17]: > 1020 nM
- IC50 [18]: 57.6 nM
- IC50 [19]: 3.44 nM
- IC50 [20]: 295 nM
- IC50 [21]: 128 nM
- IC50 [22]: 16.9 nM
- IC50 [23]: 257 nM
- IC50 [24]: 19.1 nM
- IC50 [25]: 67.2 nM
- IC50 [26]: 7.5 nM
- IC50 [27]: 282 nM
- IC50 [28]: 16.1 nM
- IC50 [29]: > 1020 nM
- IC50 [30]: 321 nM
- IC50 [31]: 250 nM
- IC50 [32]: 76 nM
- IC50 [33]: 1.91 nM
- IC50 [34]: 230 nM
- IC50 [35]: 6.05 nM
- IC50 [36]: 6.11 nM
- IC50 [37]: 413 nM
- IC50 [38]: 461 nM
- IC50 [39]: > 1020 nM
- IC50 [40]: > 1020 nM
- IC50 [41]: 48.7 nM
- IC50 [42]: 135 nM
- IC50 [43]: 102 nM
- IC50 [44]: > 1020 nM
- IC50 [45]: 725 nM
- IC50 [46]: 65.9 nM
- IC50 [47]: 63.5 nM
- IC50 [48]: 570 nM
- IC50 [49]: 46.1 nM

SMILES: COc1cc2ncn(-c3cc(OCc4ccccc4C(F)(F)F)c(C(N)=O)s3)c2cc1OC [GW843682X]
- IC50 [1]: 16.5 nM
- IC50 [2]: 181 nM
- IC50 [3]: > 256 nM
- IC50 [4]: 5.83 nM
- IC50 [5]: 95.4 nM
- IC50 [6]: > 256 nM
- IC50 [7]: > 256 nM
- IC50 [8]: > 256 nM
- IC50 [9]: 86.8 nM
- IC50 [10]: 67.9 nM
- IC50 [11]: > 256 nM
- IC50 [12]: 27.5 nM
- IC50 [13]: 122 nM
- IC50 [14]: 139 nM
- IC50 [15]: 86.2 nM
- IC50 [16]: > 256 nM
- IC50 [17]: 94.3 nM
- IC50 [18]: > 256 nM
- IC50 [19]: 26.6 nM
- IC50 [20]: 37.4 nM
- IC50 [21]: 24.1 nM
- IC50 [22]: 18.1 nM
- IC50 [23]: 21.3 nM
- IC50 [24]: 9.86 nM
- IC50 [25]: 12.3 nM
- IC50 [26]: 5.89 nM
- IC50 [27]: > 256 nM
- IC50 [28]: 30.4 nM
- IC50 [29]: 232 nM
- IC50 [30]: 105 nM
- IC50 [31]: > 256 nM
- IC50 [32]: > 256 nM
- IC50 [33]: 13.3 nM
- IC50 [34]: 20.8 nM
- IC50 [35]: 25.3 nM
- IC50 [36]: 18.4 nM
- IC50 [37]: 107 nM
- IC50 [38]: 7.53 nM
- IC50 [39]: > 256 nM
- IC50 [40]: > 256 nM
- IC50 [41]: 225 nM
- IC50 [42]: 22 nM
- IC50 [43]: 60.6 nM
- IC50 [44]: > 256 nM
- IC50 [45]: 48 nM
- IC50 [46]: > 256 nM
- IC50 [47]: 11.2 nM
- IC50 [48]: 52 nM
- IC50 [49]: 53.2 nM
